One experiment has as its target T1, human CaSR E297A mutant (Homo sapiens, UniProt P41180, E297A).
T1 construct: (N); expressed in transfected cells; host or cells: PEAKrapid cells (ATCC), pcDNA 3.1, transient transfection
T1 sequence (P41180 20-1078 E297A): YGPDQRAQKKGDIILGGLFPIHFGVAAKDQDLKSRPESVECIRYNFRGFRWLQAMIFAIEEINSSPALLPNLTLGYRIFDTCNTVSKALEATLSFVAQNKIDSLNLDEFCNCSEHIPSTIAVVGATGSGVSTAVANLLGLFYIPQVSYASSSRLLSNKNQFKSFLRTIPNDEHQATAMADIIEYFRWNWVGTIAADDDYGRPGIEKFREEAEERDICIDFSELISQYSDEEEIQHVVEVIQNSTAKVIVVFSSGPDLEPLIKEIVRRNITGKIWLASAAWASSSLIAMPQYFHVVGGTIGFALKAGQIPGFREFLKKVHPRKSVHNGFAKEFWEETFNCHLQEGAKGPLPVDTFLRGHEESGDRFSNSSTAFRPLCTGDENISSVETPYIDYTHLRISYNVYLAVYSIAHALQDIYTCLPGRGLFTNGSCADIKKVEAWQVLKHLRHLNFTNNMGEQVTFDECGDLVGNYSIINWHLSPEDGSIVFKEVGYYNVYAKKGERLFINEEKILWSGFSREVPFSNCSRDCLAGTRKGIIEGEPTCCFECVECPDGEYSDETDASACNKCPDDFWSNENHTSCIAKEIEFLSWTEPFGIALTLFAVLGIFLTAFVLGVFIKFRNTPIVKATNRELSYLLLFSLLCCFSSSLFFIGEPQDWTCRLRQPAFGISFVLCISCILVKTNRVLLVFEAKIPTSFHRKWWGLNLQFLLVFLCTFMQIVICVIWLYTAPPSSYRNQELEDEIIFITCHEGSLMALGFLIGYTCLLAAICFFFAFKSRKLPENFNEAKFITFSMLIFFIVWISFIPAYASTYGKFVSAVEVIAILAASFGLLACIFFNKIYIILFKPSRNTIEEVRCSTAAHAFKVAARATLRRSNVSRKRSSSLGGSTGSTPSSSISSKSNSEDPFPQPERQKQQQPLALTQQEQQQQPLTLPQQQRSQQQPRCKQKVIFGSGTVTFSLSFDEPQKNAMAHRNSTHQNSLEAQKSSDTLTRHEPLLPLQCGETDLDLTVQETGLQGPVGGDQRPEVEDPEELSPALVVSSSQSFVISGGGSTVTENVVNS
Put plainly: Calcium mobilization assay, CaSR E297A mutant. As to conditions: for Response in calcium mobilization assay: in words. The experiment is classed as cell-based. As for the experimental part: (§1) The CaSR receptor responsiveness was assessed by using PEAK^rapid cells (ATCC, Manassas, VA, USA) transiently transfected with the receptor DNA by the method reported by Kitajima et al.[6]. Briefly, human CaSR or its mutant cDNA with a signal sequence (MAFYSCCWVLLALTWHTSA) followed by FLAG-tag (DYKDDDDK) were inserted into pcDNA 3.1 expression vectors in Opti-MEM I medium (Thermo Fisher Scientific), mixed with FuGENE 6 (Roche), and poured onto PEAK^rapid cells grown at a submaximal concentration. After culturing for 24 h in 96-well plates, the cells were incubated with 5 µM Calcium-5 solution (Calcium-5 assay kit, Molecular Devices) for 45–60 min, and measurements were performed using a plate reader (FDSS/µCELL, Hamamatsu Photonics, Shizuoka, Japan) and its associated software. The activation of CaSR expressed in cells increases the intracellular Ca^2+ concentration, which is measured using a Ca^2+-sensitive dye. The binding of Ca^2+ to the Ca^2+-sensitive dye increases dye fluorescence, with excitation at 485 nm and emission at 525 nm. Test compounds were dissolved and administered in the assay buffer (146 mM NaCl, 1 mM MgSO4, 20 mM HEPES, 1 mM CaCl2, 2.5 mM probenecid, and 1.39 mM glucose, pH 7.4). Transiently transfected cells were challenged with compounds and compared with the vehicle alone and/or mock-transfected cells. The concentration dependence of the fluorescence intensity (influx of Ca^2+) was analyzed using the plate reader at 1 s intervals for 180 s. For the dose–response curve calculations, peak fluorescence responses after the addition of compounds were corrected for, normalized to the background fluorescence (ΔF/F = –F − F0)/F0), and baseline noise was subtracted. Dose–response curves were calculated by non-linear regression using GraphPad PRISM 8.0.
On the technique in general: Calcium assays in cells follow changes in intracellular calcium, usually with a dye or a luminescent sensor.

In the next experiment the target is T2, human CaSR (wild type) (Homo sapiens, UniProt P41180).
T2 construct: expressed in transfected cells; host or cells: PEAKrapid cells (ATCC), pcDNA 3.1, transient transfection
T2 sequence (P41180 20-1078): T1 sequence (P41180 20-1078 E297A) with A278E
Put plainly: Calcium mobilization assay, wild-type CaSR in PEAKrapid cells. The settings on record: WT CaSR; for EC50: PEAKrapid cells, 1 mM CaCl2 in assay buffer, mean ± s.e.m., n = 3; for Response in calcium mobilization assay: in words. The experiment is classed as cell-based. As for the experimental part: as §1

Numbering of substitutions follows the chain as printed. *1 amine or outer side, *2 acyl side, *3 side chain or, on linkers, in order; H or OH if unused. Where a SMILES comes first, the peptide text is derived from it. γGlu = O=C(O)[CH](CCC(=O)[*:2])N[*:1]

Broadly, the EC50 is the concentration needed to bring the measured effect to its halfway point. For the molecule `CC(C)[C@H](NC(=O)CC[C@H](N)C(=O)O)C(=O)O` [γ-EV, γ-glutamyl-valine], the “Response in calcium mobilization assay” value on human CaSR E297A mutant was “no response”. In addition, at human CaSR (wild type), the EC50 was 10.71 ± 0.1 µM and the “Response in calcium mobilization assay” value is given as “weak response”.

Take `CC(C)C(NC(=O)CCC(N)C(=O)O)C(=O)NCC(=O)O` (stereo not drawn) [γ-EVG, γ-glutamyl-valyl-glycine] (γGlu-Val-Gly-OH; configuration not given here): the “Response in calcium mobilization assay” value on human CaSR E297A mutant was “greatly reduced the response”. For the same molecule, the EC50 on human CaSR (wild type) is 0.18 ± 0.1 µM.

Turning to `N[C@@H](Cc1ccc(O)cc1)C(=O)O` [L-Tyr, L-tyrosine], the “Response in calcium mobilization assay” value on human CaSR E297A mutant is “no response”. In addition, at human CaSR (wild type), the concentration giving a half-maximal response (EC50) is 3900 ± 1100 µM and the “Response in calcium mobilization assay” value is reported as “weak response”.

Regarding `[Ca+2].[Cl-].[Cl-]` [CaCl2], the “Emax (% of wild-type values)” value on human CaSR E297A mutant is listed as 86.0 % of WT. Also, the EC50 at human CaSR E297A mutant (mean ± s.e.m., n = 3) worked out at 6580 ± 300 µM; on human CaSR (wild type) it was 190 ± 400 µM.
